# Measurements taken from US20140314663A1, “PEPTIDE-MEDIATED DELIVERY OF ACTIVE AGENTS ACROSS THE BLOOD-BRAIN BARRIER” (MAYO FOUNDATION FOR MEDICAL EDUCATION AND RESEARCH, priority 2011, published 2014).
# Tests used:
# BBB [1] = assay: Length of time of BBB opening following administration of peptide; format: in vivo, mice
# Experimental: A series of mice were administered 300 μg of K16ApoE followed by administration of ˜40 μL 2% EB at various time points. As a control, only EB was injected, cardiac perfusion was done 6 hours after EB injection, followed by collection of brain. For the other images, 300 μg of K16ApoE was first injected, then EB was injected after 5 min, 10 min, 30 min, 1 h, 2 h and 4 h, respectively. Then, perfusion and collection of brain was done after 5 h 55 min, 5 h 50 min, 5 h 30 min, 5 h, 4 h and 2 h, respectively).
# brain = assay: Residence time of EB dye in brain following transportation by the peptide; format: in vivo, mice
# Experimental: A series of mice were administered 300 μg of K16ApoE followed by administration of ˜40 μL 2% EB 10 min after administration of the peptide. As a control, only EB was injected, cardiac perfusion was done 6 hours after EB injection, followed by collection of brain. For all other mice, perfusion and collection of brains was performed 15 min, 30 min, 1 h, 2 h, 4 h, 6 h, 12, h, and 24 h following administration of EB.
# [2] = tested on: brains, lungs, heart, liver, spleen and kidney; assay: Tissue distribution of Evans Blue (EB) after delivery via K16ApoE; format: in vivo, mice
# Experimental: Mice were injected with various amounts of K16ApoE peptide (0 μg, 150 μg, 100 μg, 75 μg, 50 μg, 25 and μg) first. EB (40 μL of a 2% solution was injected 10 min after injection of the peptide. Tissues (brains, lungs, heart, liver, spleen and kidney) were collected 1 h after EB delivery. All injections were through the femoral vein.
# BBB [3] = assay: EB transportation across the BBB as a function of the amount of K16ApoE administered; format: in vivo, mouse
# Experimental: (§1) To explore whether K16ApoE (SEQ. ID. NO: 42) compromises integrity of the BBB, the peptide was first injected by iv followed by injection of Evan's Blue (EB; a routinely used small molecule blue dye with a molecular weight of 960.81) by iv into the femoral vein of a mouse. Cardiac perfusion was performed and the brains of the mice were removed and evaluated approximately 2 hours following injection of the dye. As controls, a peptide consisting of 16 lysine residues (K16) and a 20-amino acid peptide comprising the LDLR-binding domain of ApoE (ApoE-FITC; (SEQ ID NO:13)), were used. The particulars of each administration are as follows: • 1) 67.5 nanomoles of K16 injected first, then ˜40 μL 2% EB was injected. • 2) Same as 1 but K16 and EB mixed prior to injection. • 3) 67.5 nanomoles of ApoE-FITC injected first, then ˜40 μL 2% EB was injected. • 4) Same as 3 but ApoE-FITC peptide and EB was mixed prior to injection. • 5) 67.5 nanomoles of K16ApoE injected first, then ˜40 μL 2% EB was injected. • 6) Same as 5 but K16ApoE peptide and EB was mixed first before injection.
# Using the method described in Example 1, various amounts of K16ApoE (SEQ. ID. NO: 42) was injected followed by administration of ˜40 μL 2% EB. […]
# BBB [4] = assay: Transportation of dyes of various molecular weights across the BBB (K16ApoE or K16ApoE+IgG); format: in vivo, mouse
# Experimental: as §1
# To evaluate delivery of molecules of various molecular weights across the blood brain barrier, the method of Example 1 was used with Evan's Blue (EB), MW 960.81 gmol; Crocein Scarlet, MW 584.54 g/mol; and Light green SF, MW 792.86 g/mol. […]
# BBB [5] = assay: Transportation of Evan's Blue (EB) dye across the BBB after iv injection of peptide; format: in vivo, mouse; settings: 67.5 nanomoles K16ApoE iv injected first, then ~40 μL 2% EB; brain evaluated ~2 hours after dye
# Experimental: as §1
# BBB [6] = assay: Comparison of delivery of EB to the brain by K16ApoE and K26ApoE; format: in vivo; settings: for EB dye in brain: EB 10 min later, brain collected 1 h after EB
# Experimental: This experiment was carried out to evaluate if lengthening the lysine-chain will have any effect on the delivery of small molecules to the brain. ˜40 μL of 2% EB was injected 10 min after injection of various amounts of K16ApoE (75 μg, 100 μg, 150 μg, 250 μg, and 300 μg) or K26ApoE (25 μg, 50 μg, 75 μg, 100 μg, 125 μg, and 150 μg). K26ApoE (SEQ ID NO: 139) having the sequence: Brain tissue as was collected 1 h following EB injection. All injections were at the femoral vein.
# [7] = control: only EB injected, perfusion 6 hours after EB
molecule,measurement,setting,value
"Cc1cc(-c2ccc(/N=N/c3ccc4c(S(=O)(=O)O)cc(S(=O)(=O)O)c(N)c4c3O)c(C)c2)ccc1/N=N/c1ccc2c(S(=O)(=O)O)cc(S(=O)(=O)O)c(N)c2c1O [EB, Evan's Blue]",EB dye in brain,BBB [1]; [7],no dye was observed
same,time after administration up to which dye remains intense (retained well) in brain,brain; EB 10 min after 300 μg K16ApoE,up to 4 h
same,time post EB administration at which dye is first observed in brain,brain; EB 10 min after 300 μg K16ApoE,15 min
same,"time after administration up to which dye is still observed, less intensely, in brain","brain; EB 10 min after 300 μg K16ApoE, longest time point tested",up to 24 hours
same,EB dye in brain,brain; [7],no dye is observed
same,EB in brain,"[2]; EB 10 min after 0-150 μg K16ApoE, tissues collected 1 h after EB",goes into brain only after injection of the peptide
same,EB stain of tissues,[2]; EB injected after K16ApoE injection,"Kidney, spleen and liver are stained with EB"
same,EB stain of tissues,[2]; EB injected without K16ApoE,"Kidney, spleen, liver and heart show some EB-stain"
KKKKKKKKKKKKKKKKLRVRLASHLRKLRKRLLRDA (KKKKKKKKKKKKKKKKLRVRLASHLRKLRKRLLRDA) [K16ApoE],EB dye in brain,"BBB [1]; EB injected 5 min, 10 min, 30 min after 300 μg K16ApoE",observed
same,EB dye in brain,BBB [1]; EB injected 1 h and 2 h after 300 μg K16ApoE,decreased intensity of dye observed
same,EB dye in brain,BBB [1]; EB injected 4 h after 300 μg K16ApoE,little to no EB dye remaining
same,EB dye observed in the brain,"BBB [3]; increasing amounts of K16ApoE (100, 200, 300 μg) injected before ~40 μL 2% EB",increasing amount of EB dye present in the brain
same,EB dye observed in the brain,BBB [3]; less than 100 μg K16ApoE injected before ~40 μL 2% EB,no dye is observed
same,transport of dye to the brain,"BBB [4]; 300 μg K16ApoE (alone or + 300 μg IgG) injected first, then dye (EB, Crocein Scarlet, Light green SF; ~40 μL 2%)",allowed transport of molecules of various sizes to the brain
same,transport of dye to the brain,BBB [4]; 300 μg K16ApoE mixed with dye (~40 μL 2%) prior to injection,does not appear to cross the BBB
same,amount of K16ApoE giving best EB entry into brain,"[2]; EB 10 min after peptide, tissues collected 1 h after EB",150 µg
same,EB dye transported to the brain (blue coloring of brain),BBB [5],crosses the BBB and is transported to the brain
same,EB dye in brain,BBB [6]; 75 μg of peptide,no dye was observed
same,EB dye in brain,BBB [6]; 100 μg of peptide,only a small amount of dye present
same,EB dye in brain,BBB [6]; 150 μg of peptide and above,Increasing EB is observed
KKKKKKKKKKKKKKKKKKKKKKKKKKLRVRLASHLRKLRKRLLRDA (KKKKKKKKKKKKKKKKKKKKKKKKKKLRVRLASHLRKLRKRLLRDA) [K26ApoE],EB dye in brain,BBB [6]; 25 μg of peptide,no dye was observed
same,EB dye in brain,BBB [6]; 50 μg of peptide,only a small amount of dye present
same,EB dye in brain,BBB [6]; 75 μg of peptide,Increasing EB is observed
same,effectiveness in delivering EB to the brain relative to K16ApoE,BBB [6]; K26ApoE vs K16ApoE,approximately two-fold
